Usually IC50 stands for the concentration at which inhibition is half-maximal.

Among the data in ChEMBL document CHEMBL5608211, “Antibody-drug conjugates for targeted cancer therapy: Recent advances in potential payloads” (Eur J Med Chem, 2024) are IC50 values, retold here.

One assay has as its system T47D. Kind of assay: Cytotoxicity against human T47D cells. Type of assay: functional, cell-based.
The test system of the next assay is MOLT-4. Kind of assay: Cytotoxicity against human MOLT-4 cells assessed as inhibition of cell growth incubated for 72 hrs by XTT assay. It counts as functional, cell-based. The settings on record: MOLT-4, 72 h. (In general: Formazan colour is commonly taken as a measure of viable cells.)

For the compound `CC[C@H](C)[C@@H]1NC(=O)CNC(=O)[C@H]2CC(=O)[C@H]([C@@H](C)[C@@H](O)CO)NC(=O)[C@@H]3C[C@@H](O)CN3C(=O)[C@H](CC(=O)O)NC(=O)[C@H](C[S+]([O-])c3[nH]c4cc(O)ccc4c3C2)NC(=O)CNC1=O` (some centres not stated), in the assay with T47D, the IC50 is about 500 nM.
Turning to `CCN(C(C)=O)[C@H]1CO[C@@H](O[C@H]2[C@H](O[C@H]3C#C/C=C\C#C[C@]4(O)CC(=O)C(NC(=O)OC)=C3/C4=C\CSC(C)=O)O[C@H](C)[C@@H](NO[C@H]3C[C@H](O)[C@H](SC(=O)c4c(C)c(I)c(O[C@@H]5O[C@@H](C)[C@H](O)[C@@H](OC)[C@H]5O)c(OC)c4OC)[C@@H](C)O3)[C@@H]2O)C[C@@H]1OC`, the IC50 with MOLT-4 stood at 0.00015 nM.
